# Experimental data from the supplement of paper PMC10307832.
# Tests used:
# Test in all cases: relative viability (nuclei count vs DMSO), 5 days (fraction); higher = more cells survive
# COR-L23 = system: COR-L23
# In short: (§1)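 Dosing by pin tool came one day after lung cancer cell lines were seeded in 1536-well plates, using either one drug or a fixed anchor-drug dose plus five library-drug doses (not always all listed) in √10 steps. After 5 days, nuclei were counted on 4× images. Relative viability is treated-well nuclei count divided by vehicle-well nuclei count, and values are medians of duplicate plates.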
# ChaGo-K-1 = system: ChaGo-K-1
# In short: as §1
# EPLC-272H = system: EPLC-272H
# In short: as §1
# H3255 = system: H3255
# In short: as §1
# HARA = system: HARA
# In short: as §1
# HCC-78 = system: HCC-78
# In short: as §1
# HOP-62 = system: HOP-62
# In short: as §1
# LCLC-97TM1 = system: LCLC-97TM1
# In short: as §1
# LXF-289 = system: LXF-289
# In short: as §1
# NCI-H1395 = system: NCI-H1395
# In short: as §1
# NCI-H1437 = system: NCI-H1437
# In short: as §1
# NCI-H1650 = system: NCI-H1650
# In short: as §1
# NCI-H1666 = system: NCI-H1666
# In short: as §1
# NCI-H1793 = system: NCI-H1793
# In short: as §1
# NCI-H1944 = system: NCI-H1944
# In short: as §1
# NCI-H2085 = system: NCI-H2085
# In short: as §1
# NCI-H2087 = system: NCI-H2087
# In short: as §1
# NCI-H2126 = system: NCI-H2126
# In short: as §1
# NCI-H3122 = system: NCI-H3122
# In short: as §1
# NCI-H441 = system: NCI-H441
# In short: as §1
# NCI-H596 = system: NCI-H596
# In short: as §1
# PC-14 = system: PC-14
# In short: as §1
smiles,measurement,setting,value
CCNC(=O)c1noc(-c2cc(C(C)C)c(O)cc2O)c1-c1ccc(CN2CCOCC2)cc1 [Luminespib] + CC1(C)CCC(c2ccc(Cl)cc2)=C(CN2CCN(c3ccc(C(=O)NS(=O)(=O)c4ccc(N[C@H](CCN5CCOCC5)CSc5ccccc5)c(S(=O)(=O)C(F)(F)F)c4)cc3)CC2)C1 [Navitoclax] (partner 0.5 µM),relative viability,COR-L23; first compound 0.002 µM,1.14
same,relative viability,COR-L23; first compound 0.006325 µM,0.885
same,relative viability,COR-L23; first compound 0.02 µM,1
same,relative viability,COR-L23; first compound 0.06325 µM,0.0758
same,relative viability,COR-L23; first compound 0.2 µM,0.0617
same,relative viability,ChaGo-K-1; first compound 0.002 µM,1.1
same,relative viability,ChaGo-K-1; first compound 0.02 µM,0.932
same,relative viability,ChaGo-K-1; first compound 0.06325 µM,0.41
same,relative viability,ChaGo-K-1; first compound 0.2 µM,0.311
same,relative viability,EPLC-272H; first compound 0.006325 µM,0.831
same,relative viability,EPLC-272H; first compound 0.02 µM,0.782
same,relative viability,EPLC-272H; first compound 0.06325 µM,1.11
same,relative viability,EPLC-272H; first compound 0.2 µM,1.28
same,relative viability,H3255; first compound 0.002 µM,0.517
same,relative viability,H3255; first compound 0.006325 µM,0.511
same,relative viability,H3255; first compound 0.02 µM,0.272
same,relative viability,H3255; first compound 0.06325 µM,0.536
same,relative viability,H3255; first compound 0.2 µM,0.112
same,relative viability,HARA; first compound 0.002 µM,1.21
same,relative viability,HARA; first compound 0.006325 µM,1.14
same,relative viability,HARA; first compound 0.02 µM,1.15
same,relative viability,HARA; first compound 0.06325 µM,1.08
same,relative viability,HARA; first compound 0.2 µM,0.553
same,relative viability,HCC-78; first compound 0.002 µM,0.874
same,relative viability,HCC-78; first compound 0.06325 µM,1.12
same,relative viability,HCC-78; first compound 0.2 µM,0.21
same,relative viability,HOP-62; first compound 0.002 µM,1
same,relative viability,HOP-62; first compound 0.006325 µM,1.07
same,relative viability,HOP-62; first compound 0.02 µM,1.07
same,relative viability,HOP-62; first compound 0.06325 µM,0.909
same,relative viability,HOP-62; first compound 0.2 µM,0.103
same,relative viability,LCLC-97TM1; first compound 0.002 µM,0.3
same,relative viability,LCLC-97TM1; first compound 0.006325 µM,0.538
same,relative viability,LCLC-97TM1; first compound 0.02 µM,0.31
same,relative viability,LCLC-97TM1; first compound 0.06325 µM,0.411
same,relative viability,LCLC-97TM1; first compound 0.2 µM,0.338
same,relative viability,LXF-289; first compound 0.002 µM,0.951
same,relative viability,LXF-289; first compound 0.006325 µM,0.937
same,relative viability,LXF-289; first compound 0.02 µM,1.05
same,relative viability,LXF-289; first compound 0.06325 µM,0.851
same,relative viability,LXF-289; first compound 0.2 µM,0.302
same,relative viability,NCI-H1395; first compound 0.002 µM,1.42
same,relative viability,NCI-H1395; first compound 0.006325 µM,1.16
same,relative viability,NCI-H1395; first compound 0.02 µM,0.949
same,relative viability,NCI-H1395; first compound 0.06325 µM,0.407
same,relative viability,NCI-H1395; first compound 0.2 µM,0.338
same,relative viability,NCI-H1437; first compound 0.002 µM,1.06
same,relative viability,NCI-H1437; first compound 0.006325 µM,1.07
same,relative viability,NCI-H1437; first compound 0.02 µM,1.16
same,relative viability,NCI-H1437; first compound 0.06325 µM,0.318
same,relative viability,NCI-H1437; first compound 0.2 µM,0.128
same,relative viability,NCI-H1650; first compound 0.002 µM,1.31
same,relative viability,NCI-H1650; first compound 0.006325 µM,1.11
same,relative viability,NCI-H1650; first compound 0.02 µM,0.318
same,relative viability,NCI-H1650; first compound 0.06325 µM,0.159
same,relative viability,NCI-H1650; first compound 0.2 µM,0.144
same,relative viability,NCI-H1666; first compound 0.002 µM,0.807
same,relative viability,NCI-H1666; first compound 0.006325 µM,0.97
same,relative viability,NCI-H1666; first compound 0.02 µM,1.29
same,relative viability,NCI-H1666; first compound 0.06325 µM,0.913
same,relative viability,NCI-H1666; first compound 0.2 µM,0.554
same,relative viability,NCI-H1793; first compound 0.002 µM,0.517
same,relative viability,NCI-H1793; first compound 0.006325 µM,0.374
same,relative viability,NCI-H1793; first compound 0.02 µM,0.293
same,relative viability,NCI-H1793; first compound 0.06325 µM,0.137
same,relative viability,NCI-H1793; first compound 0.2 µM,0.122
same,relative viability,NCI-H1944; first compound 0.002 µM,1.06
same,relative viability,NCI-H1944; first compound 0.006325 µM,0.99
same,relative viability,NCI-H1944; first compound 0.02 µM,0.708
same,relative viability,NCI-H1944; first compound 0.06325 µM,0.939
same,relative viability,NCI-H1944; first compound 0.2 µM,0.973
same,relative viability,NCI-H2085; first compound 0.002 µM,1.15
same,relative viability,NCI-H2085; first compound 0.006325 µM,1.13
same,relative viability,NCI-H2085; first compound 0.02 µM,1.14
same,relative viability,NCI-H2085; first compound 0.06325 µM,0.677
same,relative viability,NCI-H2085; first compound 0.2 µM,0.503
same,relative viability,NCI-H2087; first compound 0.002 µM,1.03
same,relative viability,NCI-H2087; first compound 0.006325 µM,0.871
same,relative viability,NCI-H2087; first compound 0.02 µM,0.911
same,relative viability,NCI-H2087; first compound 0.06325 µM,0.202
same,relative viability,NCI-H2087; first compound 0.2 µM,0.202
same,relative viability,NCI-H2126; first compound 0.002 µM,0.852
same,relative viability,NCI-H2126; first compound 0.006325 µM,0.777
same,relative viability,NCI-H2126; first compound 0.02 µM,0.506
same,relative viability,NCI-H2126; first compound 0.06325 µM,0.864
same,relative viability,NCI-H2126; first compound 0.2 µM,0.874
same,relative viability,NCI-H3122; first compound 0.002 µM,1.03
same,relative viability,NCI-H3122; first compound 0.006325 µM,0.956
same,relative viability,NCI-H3122; first compound 0.02 µM,1.05
same,relative viability,NCI-H3122; first compound 0.06325 µM,0.919
same,relative viability,NCI-H3122; first compound 0.2 µM,0.196
same,relative viability,NCI-H441; first compound 0.002 µM,0.714
same,relative viability,NCI-H441; first compound 0.006325 µM,0.648
same,relative viability,NCI-H441; first compound 0.02 µM,0.626
same,relative viability,NCI-H441; first compound 0.06325 µM,0.121
same,relative viability,NCI-H441; first compound 0.2 µM,0.161
same,relative viability,NCI-H596; first compound 0.002 µM,0.954
same,relative viability,NCI-H596; first compound 0.006325 µM,0.886
same,relative viability,NCI-H596; first compound 0.06325 µM,0.936
same,relative viability,NCI-H596; first compound 0.2 µM,0.996
same,relative viability,PC-14; first compound 0.002 µM,0.996
same,relative viability,PC-14; first compound 0.006325 µM,0.945
same,relative viability,PC-14; first compound 0.02 µM,1.17
same,relative viability,PC-14; first compound 0.06325 µM,0.0977
same,relative viability,PC-14; first compound 0.2 µM,0.128
